Experimental data: ChEMBL document CHEMBL3102819, “Morpholylureas are a new class of potent and selective inhibitors of the type 5 17-β-hydroxysteroid dehydrogenase (AKR1C3)” (Bioorg Med Chem, 2014)
Residue numbers refer to the chain shown, from its start. pIC50: −log10 of the molar value.

How the values were obtained:
[1] = target: T1, Aldo-keto reductase family 1 member C3 (Homo sapiens, UniProt P42330); experiment: Inhibition of recombinant AKR1C3 (unknown origin) after 1 hr by competitive fluorescence assay
T1 sequence (P42330 whole entry): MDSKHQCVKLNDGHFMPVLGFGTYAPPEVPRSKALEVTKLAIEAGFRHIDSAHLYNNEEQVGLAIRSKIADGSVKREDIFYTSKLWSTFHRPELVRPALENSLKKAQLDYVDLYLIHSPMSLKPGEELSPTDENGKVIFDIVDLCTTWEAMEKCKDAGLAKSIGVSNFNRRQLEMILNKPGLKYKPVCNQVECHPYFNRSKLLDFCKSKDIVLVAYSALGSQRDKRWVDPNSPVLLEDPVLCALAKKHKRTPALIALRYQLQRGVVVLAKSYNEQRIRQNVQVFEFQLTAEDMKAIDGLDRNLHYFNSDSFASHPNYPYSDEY

[2] = target: T2, Aldo-keto reductase family 1 member C4 (Homo sapiens, UniProt P17516); experiment: Inhibition of recombinant AKR1C4 (unknown origin) after 1 hr by competitive fluorescence assay
T2 sequence (P17516 whole entry): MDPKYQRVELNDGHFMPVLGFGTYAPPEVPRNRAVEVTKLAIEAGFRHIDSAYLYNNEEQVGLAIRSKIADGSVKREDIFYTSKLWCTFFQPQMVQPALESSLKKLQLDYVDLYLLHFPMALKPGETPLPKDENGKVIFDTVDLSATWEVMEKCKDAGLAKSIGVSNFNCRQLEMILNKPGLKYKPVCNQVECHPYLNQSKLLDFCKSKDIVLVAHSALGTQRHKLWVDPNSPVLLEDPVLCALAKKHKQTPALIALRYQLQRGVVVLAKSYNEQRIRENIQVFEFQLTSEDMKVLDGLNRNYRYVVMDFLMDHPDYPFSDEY

[3] = target: T3, Aldo-keto reductase family 1 member C1 (Homo sapiens, UniProt Q04828); experiment: Inhibition of recombinant AKR1C1 (unknown origin) after 1 hr by competitive fluorescence assay
T3 sequence (Q04828 whole entry): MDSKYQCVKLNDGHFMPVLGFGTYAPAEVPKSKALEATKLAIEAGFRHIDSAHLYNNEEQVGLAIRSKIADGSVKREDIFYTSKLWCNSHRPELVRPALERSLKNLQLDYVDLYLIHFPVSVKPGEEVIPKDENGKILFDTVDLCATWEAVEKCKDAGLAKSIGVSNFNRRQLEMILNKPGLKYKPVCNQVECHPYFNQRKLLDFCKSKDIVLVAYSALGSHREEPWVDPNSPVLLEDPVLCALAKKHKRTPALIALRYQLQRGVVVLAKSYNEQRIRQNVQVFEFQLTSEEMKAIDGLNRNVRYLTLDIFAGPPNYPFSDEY

[4] = target: T4, Aldo-keto reductase family 1 member C2 (Homo sapiens, UniProt P52895); experiment: Inhibition of recombinant AKR1C2 (unknown origin) after 1 hr by competitive fluorescence assay
T4 sequence (P52895 whole entry): T3 sequence (Q04828 whole entry) with T38V, R47H, L54V, C87S, V151M, R170H, Q172L

[5] = target: T1, Aldo-keto reductase family 1 member C3; experiment: Inhibition of AKR1C3 (unknown origin) expressed in human HCT116 cells assessed as formation of PR-104H from PR-104A preincubated for 2 hrs; type: cell-based, HCT-116

Row | Compound | pIC50 [1] | pIC50 [2] | pIC50 [3] | pIC50 [4] | pIC50 [5]
1 | O=C(O)c1ccc(N2CCN(C(=O)N3CCOCC3)CC2)cc1 | < 4.52 |  |  |  | 
2 | O=C(N1CCOCC1)N1CCN(c2ccc(I)cc2)CC1 | 7.17 | < 4.52 | < 4.52 | < 4.52 | 8.00
3 | O=C(N1CCOCC1)N1CCN(c2ccc(Cl)cc2Cl)CC1 | 7.60 | < 4.52 | < 4.52 | < 4.52 | 8.52
4 | O=C(O)C1CCN(C(=O)N2CCN(c3ccc(Cl)cc3)CC2)CC1 | 4.66 |  |  |  | 
5 | O=C(N1CCOCC1)N1CCN(c2ccc(Br)cc2)CC1 | 6.85 | < 4.52 | < 4.52 | < 4.52 | 7.92
6 | O=C(N1CCOCC1)N1CCN(c2ccc(F)cc2)CC1 | 6.30 | < 4.52 | < 4.52 | < 4.52 | 
7 | O=C(N1CCN(CCO)CC1)N1CCN(c2ccc(Cl)cc2)CC1 | < 4.52 |  |  |  | 
8 | O=S(=O)(N1CCOCC1)N1CCN(c2ccc(Cl)cc2)CC1 | < 4.52 |  |  |  | 
9 | O=C(N1CCOCC1)N1CCN(c2ccc(Cl)cc2)CC1 | 6.96 | < 4.52 | < 4.52 | < 4.52 | 7.74
10 | O=C(NC1CCCCC1)N1CCN(c2ccc(Cl)cc2)CC1 | < 4.52 |  |  |  | 
11 | O=C(N1CCOCC1)N1CCN(c2ccc(C(F)(F)F)cc2)CC1 | 7.17 | < 4.52 | < 4.52 | < 4.52 | 7.66
12 | S=C(N1CCOCC1)N1CCN(c2ccc(Cl)cc2)CC1 | < 4.52 |  |  |  | 
13 | O=C(N1CCOCC1)N1CC2CC1CN2c1ccc(Cl)cc1 (stereo not given) | 5.43 | < 4.52 | < 4.52 | < 4.52 | 
14 | O=C(N1CCOCC1)N1CCCN(c2ccc(Cl)cc2)CC1 | 4.52 |  |  |  | 
15 | CN(C)C(=O)c1ccc(N2CCN(C(=O)N3CCOCC3)CC2)cc1 | < 4.52 |  |  |  | 
16 | O=C(N1CCOCC1)N1CCN(c2ccccc2C(F)(F)F)CC1 | 6.15 | < 4.52 | < 4.52 | < 4.52 | 
17 | COc1ccc(N2CCN(C(=O)N3CCOCC3)CC2)cc1 | 6.46 | < 4.52 | < 4.52 | < 4.52 | 
18 | CS(=O)(=O)Nc1ccc(N2CCN(C(=O)N3CCOCC3)CC2)cc1 | < 4.52 |  |  |  | 
19 | O=C(N1CCN(c2ccc(Cl)cc2)CC1)N1CC[S+]([O-])CC1 | < 4.52 |  |  |  | 
20 | O=C(N1CCOCC1)N1CCN(c2ccccc2)CC1 | 5.21 | < 4.52 | < 4.52 | < 4.52 | 
21 | CNC(=O)c1ccc(N2CCN(C(=O)N3CCOCC3)CC2)cc1 | < 4.52 |  |  |  | 
22 | O=C(N1CCOCC1)N1CCN(c2ccc(Cl)nc2)CC1 | 6.28 | < 4.52 | < 4.52 | < 4.52 | 
23 | CN1CCN(C(=O)N2CCN(c3ccc(Cl)cc3)CC2)CC1 | < 4.52 |  |  |  | 
24 | O=C(C1CCOCC1)N1CCN(c2ccc(Cl)cc2)CC1 | < 4.52 |  |  |  | 
25 | O=C(N1CCOCC1)N1CCN(c2ccc(Br)cn2)CC1 | 7.00 | < 4.52 | < 4.52 | < 4.52 | 7.51
26 | O=C(N1CCOCC1)N1CCN(Cc2ccc(Cl)cc2)CC1 | 6.46 | < 4.52 | < 4.52 | < 4.52 | 
27 | CC(=O)Nc1ccc(N2CCN(C(=O)N3CCOCC3)CC2)cc1 | < 4.52 |  |  |  | 

Row | Compound | pIC50 [1] | pIC50 [2] | pIC50 [3] | pIC50 [4] | pIC50 [5]
28 | O=C(C1CCCCC1)N1CCN(c2ccc(Cl)cc2)CC1 | < 4.52 |  |  |  | 
29 | O=C(N1CCOCC1)N1CCN(c2ccc3ccccc3c2)CC1 | 5.31 | < 4.52 | < 4.52 | < 4.52 | 
30 | Cc1ccc(N2CCN(C(=O)N3CCOCC3)CC2)cc1 | 6.44 | < 4.52 | < 4.52 | < 4.52 | 
31 | O=C(N1CCOCC1)N1CCN(c2ccc(Cl)cc2CO)CC1 | 6.80 | < 4.52 | < 4.52 | < 4.52 | 7.89
32 | O=C(N1CCN(c2ccc(Cl)cc2)CC1)N1CCS(=O)(=O)CC1 | < 4.52 |  |  |  | 
33 | O=C(N1CCN(c2ccc(Cl)cc2)CC1)N1CCc2ccccc2C1 | 6.46 | < 4.52 | < 4.52 | < 4.52 | 6.41
34 | O=C(N1CCOCC1)N1CCN(c2cnc3ccccc3c2)CC1 | 5.54 | < 4.52 | < 4.52 | < 4.52 | 
35 | O=C(CO)N1CCN(C(=O)N2CCN(c3ccc(Cl)cc3)CC2)CC1 | 6.34 | < 4.52 | < 4.52 | < 4.52 | 7.23
36 | O=C(N1CCCCC1)N1CCN(c2ccc(Cl)cc2)CC1 | 5.42 | < 4.52 | < 4.52 | < 4.52 | 
37 | NC(=O)c1ccc(N2CCN(C(=O)N3CCOCC3)CC2)cc1 | < 4.52 |  |  |  | 
38 | O=C(N1CCOCC1)N1CCN(c2ccc(-c3ccccc3)cc2)CC1 | < 4.52 |  |  |  | 
39 | O=C(c1ccc(Cl)cc1)N1CCN(C(=O)N2CCOCC2)CC1 | 6.32 | < 4.52 | < 4.52 | < 4.52 | 
40 | O=C(N1CCSCC1)N1CCN(c2ccc(Cl)cc2)CC1 | 5.04 | < 4.52 | < 4.52 | < 4.52 | 
41 | Cc1ccccc1N1CCN(C(=O)N2CCOCC2)CC1 | 4.92 |  |  |  | 
42 | Cc1cc(Cl)ccc1N1CCN(C(=O)N2CCOCC2)CC1 | 6.96 | < 4.52 | < 4.52 | < 4.52 | 7.89
43 | CS(=O)(=O)c1ccc(N2CCN(C(=O)N3CCOCC3)CC2)cc1 | 5.26 | < 4.52 | < 4.52 | < 4.52 | 
44 | O=C(N1CCOCC1)N1CCN(c2cccc(Cl)c2)CC1 | 5.28 | < 4.52 | < 4.52 | < 4.52 | 
45 | O=C(c1ccncc1)N1CCN(c2ccc(Cl)cc2)CC1 | 4.90 |  |  |  | 
46 | COc1ccccc1N1CCN(C(=O)N2CCOCC2)CC1 | 4.69 |  |  |  | 
47 | O=C(Nc1ccccc1)N1CCN(c2ccc(Cl)cc2)CC1 | < 4.52 |  |  |  | 
48 | O=C(N1CCOCC1)N1CCN(c2ccccc2Cl)CC1 | 5.64 | < 4.52 | < 4.52 | < 4.52 | 
49 | NC(=O)c1cccc(N2CCN(C(=O)N3CCOCC3)CC2)c1 | < 4.52 |  |  |  | 
50 | COC(=O)c1ccc(N2CCN(C(=O)N3CCOCC3)CC2)cc1 | < 4.52 | < 4.52 | < 4.52 | < 4.52 | 
51 | O=C(c1ccccc1)N1CCN(c2ccc(Cl)cc2)CC1 | < 4.52 |  |  |  | 
52 | C#Cc1ccc(N2CCN(C(=O)N3CCOCC3)CC2)cc1 | 6.18 | < 4.52 | < 4.52 | < 4.52 | 
53 | O=C(N1CCOCC1)N1CCN(c2ccc([N+](=O)[O-])cc2)CC1 | 6.24 | < 4.52 | < 4.52 | < 4.52 | 
